Source: paper PMC7234998, “Quantification of Colistin in Plasma by Liquid Chromatography-Tandem Mass Spectrometry: Application to a Pharmacokinetic Study” (Scientific Reports, 2020)
Positions of bridges follow the written chain, without caps; N, C: chain ends. Non-standard residues stand in square brackets, D forms with d. Residues, ends and D or L forms follow the SMILES beside them. *: point of attachment. X1 = CC[C@H](C)CCCCC(=O)*; Dab = NCC[C@H](N)C(=O)O

Legend:
[1] = in vivo, cited from earlier work
Protocol: However, colistin sulphate has been reported to be well absorbed after an oral administration in infants. […] The standards and quality control samples concentrations were selected based on the therapeutic range of colistin. The expected colistin serum levels according to the antimicrobial reference laboratory assay service are 5–15 mg/L and 2–4 mg/L for the peak and tough concentrations, respectively. […] Choosing the animal species to perform the pharmacokinetic study was based on the similarity of colistin pharmacokinetic profile between animal species and humans. […] The species that has the closest pharmacokinetic profile to humans are rats[43]–[45].

[2] = rats, cited from earlier work
Excerpt: Following the validation of the present analytical method, the method was applied to estimate the pharmacokinetic profile of colistin in experimental rats. Choosing the animal species to perform the pharmacokinetic study was based on the similarity of colistin pharmacokinetic profile between animal species and humans. […] The species that has the closest pharmacokinetic profile to humans are rats[43]–[45]. […] This is because of a distribution phase that occurs before the decline in the colistin concentration. This finding is in agreement with previous reports[43],[44],[49]. In the present study, we observed that colistin concentration declined rapidly over 180–240 min which is consistent with earlier findings[45],[49]. […] In the present study, the Vd of colistin was 2.45 ± 1.30 L/kg in ...

[3] = Freeze-thaw stability of colistin in rat plasma QC samples; conditions: −70 °C to 25 °C after 24 hours, five cycles, n = 4; for Found concentration after freeze-thaw: LC-MS/MS, mean ± S.D., SD
Protocol: (§1) Colistin sulfate was prepared by dissolving 5.5 mg of the powder in 5 ml water to make a stock solution of 1 mg/ml of colistin. PMB sulfate solution of 1 mg/ml was also prepared by dissolving 5.8 mg of PMB sulfate powder in 5 ml water. Both solutions were stored at −70 °C. Calibration standards and quality controls were prepared by spiking different amounts of colistin sulfate stock solution in plasma. Aliquots of colistin sulfate were further diluted to provide standard concentrations of 0.5, 1, 2, 5, 10, 15, and 20 μg/mL (equivalent to: 78, 156, 312, 780, 1560, 2340 and 3120 ng/ml of colistin A and 353, 706, 1412, 3350, 7060, 10590 and 14120 ng/ml of colistin B) whereas, the concentrations of 1.5, 3.5, 7.5 and 17.5 μg/mL (which contained 234, 546, 1170 and 2730 ng/ml of colistin A and 1059, 2471, 5295 and 12355 ng/ml of colistin B) were considered as quality controls. The calibration standards and quality controls were aliquoted (150 μL) into 0.5 ml Eppendorf tubes and stored at −70 °C pending analysis.
(§2) To 100 μl rat plasma sample, 5 μl of 500 μg/ml IS was added and followed by addition of 400 μl of 50:50 (v/v) methanol-TCA (10%). The samples were vortex-mixed for 1 min, rota-mixed for 10 min at 40 rpm and then centrifuged at 12,000 rpm for 10 min. Following centrifugation, 400 µl of the supernatant was collected and re-extracted with solid phase extraction (SPE) using SPE (Oasis HLB 1 cc, 30 mg) cartridges. First, the cartridges were conditioned with 500 μl of methanol then 500 μl of water. After that, 400 μl of the supernatant was transferred and then washed with 500 μl of water. The tubes were changed and then the samples were eluted with 150 μl of methanol: water: formic acid (80:19:1%, v/v/v) solution. The elution step was repeated twice, and then 250 μl of the solution was transferred to the low volume inserts and 20 μl of this solution was injected into the LC-MS system.
(§3) Various types of stability tests including freeze-thaw stability and long-term stability were assessed. The freeze-thaw stability test was performed by removing the four QC samples out of the storage temperature (−70 °C) and keeping them at room temperature (25 °C) until thawing and then aliquots of the samples were analyzed. After that, the samples were again returned back for freezing in the same storage conditions for 12 to 24 h. The freeze-thaw cycles were repeated five times and 4 replicates of the analytes were assayed. In addition, a long-term stability test was performed to ensure that the stability of the samples for a time that exceeds the interval between the first sample collection and the last sample analysis. Four aliquots of low, medium and high concentrations (QC) were kept for 20 days in the same temperature used to store samples regularly at the lab (−70 °C) then analyzed and compared to the nominal concentration of freshly prepared QC samples. Moreover, the stability in the autosampler (4 °C) was assessed by keeping the processed samples under this condition and assayed periodically at different times for up to 24 hours. In addition, benchtop stability test was performed by keeping the samples at room temperature (25 °C) for six hours and analyzing them during this time. The mean value results of stability tests were calculated and compared to the nominal concentrations.

[4] = Long-term stability of colistin in rat plasma QC samples at −70 °C; conditions: 20 days; for Found concentration after long-term storage: LC-MS/MS, mean ± S.D., n = 5, SD; for Bias% from nominal concentration after long-term storage: n = 5
Protocol: as §1, §2, §3

[5] = Autosampler stability of processed colistin rat plasma samples at 4 °C; conditions: 4 °C for 24 hours, n = 4; for Found concentration in autosampler stability study: LC-MS/MS, mean ± S.D., SD
Protocol: as §1, §2, §3

[6] = Benchtop stability of colistin in rat plasma samples at room temperature; conditions: 25 °C for 6 hours, n = 4; for Found concentration in benchtop stability study: LC-MS/MS, mean ± S.D., SD
Protocol: as §1, §2, §3

[7] = Pharmacokinetic study of colistin in rats after IV colistin sulfate, plasma LC-MS/MS, non-compartmental analysis; conditions: male, Sprague Dawley, rat, 15 mg/kg
Protocol: as §2
Male Sprague Dawley® (MSD) rats (21 weeks ± 3 days of age) with a body weight of 450–550 g [supplied by the Animal Resource Center (ARC), Health Sciences Center (HSC), Kuwait University] were used to estimate the pharmacokinetic profile of colistin. The animals (n = 8) were housed in 12 h/12 h light/dark cycle. […] All the animals were subjected to left jugular vein cannulation, IV drug administration, and subsequent blood sampling. All surgical procedures were carried out under strict aseptic conditions. In addition, all surgical instruments and materials were autoclaved, all solutions were sterile and the surgical procedure was performed with the aid of surgical microscope (Leica wild M690). Animal body temperatures were maintained around 37.6 °C (rectal) by placing the animals on an electronic heating pad throughout the surgical procedure as well as the post-surgical recovery period. About 350 µl of rat blood sample was collected from each animal. From this sample, 50 µl of blood sample was transferred to a capillary tube, sealed with the sealant clay at one end and centrifuged to calculate the Packed Cell Volume (PCV); i.e., Hematocrit. The remaining rat blood sample (300 µl) was centrifuged at 9000 X g for 10 min and aliquots of 100 µl of plasma sample was collected and stored at −70 °C pending analysis.
Colistin was quantified in the biological samples by the present LC-MS/MS method and then the pharmacokinetic parameters (t1/2, CL, Vd, AUC) were estimated by non-compartmental method employing Kinetica® software, version 5.1 (Thermo Fisher Scientific, Waltham, USA).

[8] = rat plasma QC 1.5 μg/mL colistin (nominal 234 ng/ml colistin A, 1059 ng/ml colistin B)
[9] = rat plasma QC 3.5 μg/mL colistin (nominal 546 ng/ml colistin A, 2471 ng/ml colistin B)
[10] = rat plasma QC 7.5 μg/mL colistin (nominal 1170 ng/ml colistin A, 5295 ng/ml colistin B)
[11] = rat plasma QC 17.5 μg/mL colistin (nominal 2730 ng/ml colistin A, 12355 ng/ml colistin B)
[12] = processed rat plasma QC 1.5 μg/mL colistin (nominal 234 ng/ml colistin A, 1059 ng/ml colistin B)
[13] = processed rat plasma QC 3.5 μg/mL colistin (nominal 546 ng/ml colistin A, 2471 ng/ml colistin B)
[14] = processed rat plasma QC 7.5 μg/mL colistin (nominal 1170 ng/ml colistin A, 5295 ng/ml colistin B)
[15] = processed rat plasma QC 17.5 μg/mL colistin (nominal 2730 ng/ml colistin A, 12355 ng/ml colistin B)

Molecule: colistin sulphate
- absorption after oral administration in infants ([1]; po): well absorbed
- absorption from the gastrointestinal tract (GIT) ([1]; po): poorly absorbed
- maximum serum concentration [1]: 0.13 mg/L
- time of maximum serum concentration [1]: 1.5 h

Molecule: colistimethate sodium [CMS]
- Vd at steady state ([1]; human): 0.34 ± 0.10 L/kg
- t1/2 ([1]; human): 2.07 ± 0.867 h
- absorption after intramuscular injection [1]: rapidly absorbed
- absorption through burns, inflamed skin or mucosal membranes [1]: not absorbed
- absorption through the GIT [1]: poorly absorbed

Molecule: CC[C@H](C)CCCCC(=O)N[C@@H](CCN)C(=O)N[C@H](C(=O)N[C@@H](CCN)C(=O)N[C@H]1CCNC(=O)[C@H]([C@@H](C)O)NC(=O)[C@H](CCN)NC(=O)[C@H](CCN)NC(=O)[C@H](CC(C)C)NC(=O)[C@@H](CC(C)C)NC(=O)[C@H](CCN)NC1=O)[C@@H](C)O [Colistin A, colistin A] (X1-[Dab]T[Dab][Dab][Dab][dL]L[Dab][Dab]T; lactam 4-C)
- CL of the individual components ([2]; Sivanesan and co-workers, ref 45 (sentence ends with 41)): 2.75 ± 0.54 mL/min/kg
- t1/2 of the major components [2]: 1.37 ± 0.515 h
- Found concentration after freeze-thaw [3, 8]: 265.4 ± 35.10 ng/mL
- Bias% from nominal concentration after freeze-thaw [3, 8]: 13.42%
- Found concentration after freeze-thaw [3, 9]: 615.27 ± 30.29 ng/mL
- Bias% from nominal concentration after freeze-thaw [3, 9]: 12.69%
- Found concentration after freeze-thaw [3, 10]: 1208.93 ± 77.51 ng/mL
- Bias% from nominal concentration after freeze-thaw [3, 10]: 3.33%
- Found concentration after freeze-thaw [3, 11]: 2551.83 ± 177.97 ng/mL
- Bias% from nominal concentration after freeze-thaw [3, 11]: −6.53%
- Found concentration after long-term storage [4, 8]: 237.24 ± 5.64 ng/mL
- Bias% from nominal concentration after long-term storage [4, 8]: 1.39%
- Found concentration after long-term storage [4, 9]: 520.76 ± 19.46 ng/mL
- Bias% from nominal concentration after long-term storage [4, 9]: −4.62%
- Found concentration after long-term storage [4, 10]: 1134.44 ± 26.11 ng/mL
- Bias% from nominal concentration after long-term storage [4, 10]: −3.04%
- Found concentration after long-term storage [4, 11]: 2719 ± 50.20 ng/mL
- Bias% from nominal concentration after long-term storage [4, 11]: −0.40%
- Found concentration in autosampler stability study [5, 12]: 231.18 ± 6.22 ng/mL
- Bias% from nominal concentration in autosampler stability study [5, 12]: −1.21%
- Found concentration in autosampler stability study [5, 13]: 516.95 ± 53.28 ng/mL
- Bias% from nominal concentration in autosampler stability study [5, 13]: −5.32%
- Found concentration in autosampler stability study [5, 14]: 1034.9 ± 38.64 ng/mL
- Bias% from nominal concentration in autosampler stability study [5, 14]: −11.55%
- Found concentration in autosampler stability study [5, 15]: 2917.93 ± 341.07 ng/mL
- Bias% from nominal concentration in autosampler stability study [5, 15]: 6.88%
- Found concentration in benchtop stability study [6, 8]: 120.275 ± 50.32 ng/mL
- Bias% from nominal concentration in benchtop stability study [6, 8]: −48.6%
- Found concentration in benchtop stability study [6, 9]: 592.47 ± 488.56 ng/mL
- Bias% from nominal concentration in benchtop stability study [6, 9]: 8.51%
- Found concentration in benchtop stability study [6, 10]: 1047.6 ± 202.94 ng/mL
- Bias% from nominal concentration in benchtop stability study [6, 10]: −10.46%
- Found concentration in benchtop stability study [6, 11]: 5045 ± 3076.10 ng/mL
- Bias% from nominal concentration in benchtop stability study [6, 11]: 84.8%
- level at 0.5 h [7]: 4110 ng/mL
